According to US12036212B2, “Enhancement of tumor response to chemotherapy by activation of the asmase/ceramide pathway through timed administration of a short-acting anti-angiogenic agent” (Memorial Sloan-Kettering Cancer Center, priority 2014, dated 2024):

Legend:
[1] = in vivo; cited from earlier work
BAEC = assay: Apoptosis in vitro (Hoechst nuclear staining) in BAEC; type: cell-based, bovine; settings: 8 hours; for Effect on etoposide-induced apoptosis: BAEC pre-incubated 30 min with bFGF 2 ng/mL, VEGF 2 ng/mL or nystatin 30 μg/mL, etoposide 50 μM
Procedure: Apoptosis was assessed in vitro by examining morphologic changes in nuclear chromatin using bis-benzimide trihydrochloride (Hoechst #33258; Sigma-Aldrich, Milwaukee WI). BAEC and HCAEC monolayer cultures were first detached using 0.25% trypsin and 0.02% EDTA in HBSS and then combined with the floating population of cells. The cell pellet was washed in PBS, resuspended in 3% paraformaldehyde, and incubated for 10 min at 22° C. Following the removal of fixative, cells were resuspended in PBS containing 8 μg/ml of Hoechst-33258. Following a 15-min incubation at 22° C., cells were placed on a glass slide, and scored for the incidence of apoptotic chromatin changes using fluorescence microscope.
Since the ASMase/ceramide pathway is known to play a critical role in endothelial injury and dysfunction, BAEC and HCAEC were treated with paclitaxel (100 nM), etoposide (50 μM), and cisplatin (0.1-50 μM), and endothelial apoptosis was assessed.
To set the basis for experiments involving evaluation of anti-angiogenic therapy in combination with chemotherapy, and the role of ASMase/ceramide pathway in this process, the effects of various factors on the chemotherapy induced cell death were assessed. BAEC were pre-incubated for 30 min with bFGF (2 ng/mL), VEGF (2 ng/mL) or nystatin (30 μg/mL) prior to treatment with etoposide (50 μM), and apoptosis was evaluated after 8 hours using bis-benzamide trihydrochloride staining (FIG. 3).

ceramide [2] = assay: Ceramide generation in HCAEC; type: cell-based, human; settings: paclitaxel 100 nM, etoposide 50 μM, cisplatin 0.1-50 μM
Procedure: HCAEC were obtained from Clonetics™ Coronary Artery Endothelial Cell Systems (Cambrex Bio Science Inc.). For HCAEC culturing and sub-culturing Clonetics cell system components were used: EBM®-2, Endothelial Cell Basal Medium-2 with addition of Clonetics EGM-2-MV SingleQuots containing growth supplements (Cambrex) (Biomedical Technologies, Inc.). For sub-culturing, monolayers were dissociated with Clonetics® Trypsin/EDTA solution for 2-3 min at 22° C. at a split ratio of 1:4 to expand the cell population for experiments. HCAEC cultures were maintained at 37° C. in 5% CO2 humidified incubators.
After treatment, cells were placed on ice, washed with cold PBS, and lipids were extracted by addition of scraped cells in methanol to an equal volume of chloroform and 0.6 volume of buffered saline/EDTA solution (135 mM NaCl, 4.5 mM KCl, 1.5 mM CaCl2), 0.5 mM MgCl2, 5.6 mM glucose, 10 mM HEPES pH 7.2, 10 mM EDTA). […] After 30 minutes at room temperature, the reaction was stopped by extraction of lipids with 1 ml of chloroform:methanol:1 N HCl (100:100:1), 170 μl of buffered saline solution (BSS) (135 mM NaCl, 1.5 mM CaCl2, 0.5 mM MgCl2, 5.6 mM glucose, and 10 mM HEPES (pH 72), and 30 μl of 100 mM EDTA. The lower organic phase was dried under N2. Ceramide-1 phosphate was resolved by thin-layer chromatography on silica gel 60 plates (Whatman) using a solvent system of chloroform:methanol:acetic acid (65:15:5, v/v/v) and detected by autoradiography, and incorporated ^32P was quantified by liquid scintillation counting. The level of ceramide was determined by comparison with a standard curve generated concomitantly of known amounts of ceramide.
(§1) To determine the generality of the results observed, experiments were carried out using an additional endothelial cell line, human coronary artery endothelial cells (HCAEC); experiments were also performed using a different chemotherapeutic agent. […] Next, HCAEC were treated with paclitaxel (100 nM) (data not shown) and etoposide (50 μM) (FIG. 1F), and ceramide generation was evaluated. […]

ASMase = ASMase activity radioenzymatic assay in BAEC; type: cell-based, bovine; settings: etoposide 50 μM
Procedure: (§2) BAEC were established from the intima of bovine aorta as described^1. Stock cultures were grown in 100-mm dishes in Dulbecco's modified Eagle's medium (DMEM) supplemented with glucose (1 g/liter), 5% heat-inactivated calf serum (CS), penicillin (50 units/ml), and streptomycin (50 μg/ml). Purified human recombinant bFGF (1 ng/ml; R&D Systems, Inc., Minneapolis, MN) was added every other day during the exponential growth phase. […] These plateau phase cells were either used for experiments, or further sub-cultured (up to a maximum of 10 times) at a split ratio of 1:8. For sub-culturing, monolayers were dissociated with STV (0.05% trypsin and 0.02% EDTA in PBS) for 2-3 min at 22° C., washed twice in 5% CS-DMEM, and resuspended in DMEM with supplements as above. These mild conditions of trypsinization were sufficient to detach cells but not injure, stimulate, or affect cell function in a detectable way. BAEC were maintained at 37° C. in 10% CO2 humidified incubators.
ASMase activity was quantified by radioenzymatic assay using [^14C-methylcholine]sphingomyelin (Amersham) as substrate as described (Schissel et al. J Biol Chem, 271, 18431-18436, 1996). Cell lysates were incubated with [^14C-methylcholine]-sphingomyelin substrate (0.026 mCi/9.5 nmol) in 250 mM sodium acetate, pH 5.0 supplemented with 0.1% Triton X-100 and 1 mM EDTA or 0.1 mM ZnCl. Reactions were terminated after 1 h with CHCl3:MeOH:1N HCl (100:100:1, v/v/v), and [^14C-methylcholine]phosphocholine product in the aqueous layer of the Folch extract was quantified using a Beckman Packard 2200 CA Tricarb scintillation counter. For detection of ASMase activity in patients, 10 μl of serum was used.
To test the effect of chemotherapy on ASMase signaling and ceramide production, BAEC were treated with paclitaxel (100 nM) and ASMase activity was determined by radioenzymatic assay (Rotolo et al, infra) using [^14C-methylcholine] sphingomyelin (Amersham) as substrate (FIG. 1A). Induction of ASMase activity was observed within 5 minutes after treatment, and the activation continued for 30 minutes. Ceramide generation was monitored using the diacylglycerol kinase assay (Stancevic et al. PLoS ONE 8, e69025, 2013). […] In further support of this, pre-incubation of BAEC with nystatin prior to treatment with chemotherapy inhibits chemotherapy-induced apoptosis (FIG. 3).
To determine the generality of the results observed, experiments were carried out using an additional endothelial cell line, human coronary artery endothelial cells (HCAEC); experiments were also performed using a different chemotherapeutic agent. […] Next, HCAEC were treated with paclitaxel (100 nM) (data not shown) and etoposide (50 μM) (FIG. 1F), and ceramide generation was evaluated.
To further establish the generality of ASMase activation by various chemotherapeutic agents, BAEC and HCAEC were treated with increasing doses of cisplatin (0.1-50 μM) (data not shown). […] The ASMase/ceramide pathway was activated by chemotherapeutic agents that belong to different classes of chemotherapeutic agents, such as: taxanes, topoisomerase inhibitors, and nucleoside analog metabolic inhibitors. Since such chemotherapy agents are characterized by distinct mechanisms of action in tumor cells, it is surprising that a group of such distinct agents converges on a common molecular (ASMase/ceramide) axis in endothelium. The present confirmation that distinct chemotherapeutic agents activate the ASMase/ceramide pathway permits the present inventors to take into account the results of experiments using single dose radiotherapy, which has been reported to activate the same pathway (Rao, S. S. et al., Axitinib sensitization of high Single Dose Radiotherapy. Radiotherapy and Oncology: Journal of the European Society for Therapeutic Radiology and Oncology 111, 88-93, doi:10.1016/j.radonc.2014.02.010 (2014)).
Gemcitabine was able to activate ASMase in cultured endothelial cells. […]

ceramide [3] = assay: Ceramide generation (diacylglycerol kinase assay) in BAEC; type: cell-based, bovine; settings: etoposide 50 μM
Procedure: as §2
After treatment, cells were placed on ice, washed with cold PBS, and lipids were extracted by addition of scraped cells in methanol to an equal volume of chloroform and 0.6 volume of buffered saline/EDTA solution (135 mM NaCl, 4.5 mM KCl, 1.5 mM CaCl2), 0.5 mM MgCl2, 5.6 mM glucose, 10 mM HEPES pH 7.2, 10 mM EDTA). Lipids in the organic phase extract were dried under N2 and subjected to mild alkaline hydrolysis (0.1 N methanolic KOH for 1 hour at 37° C.) to remove glycerophospholipids. Samples were re-extracted, and the organic phase was dried under N2. Ceramide contained in each sample was resuspended in a 100 μl reaction mixture containing 150 μg of cardiolipin, 280 μM diethylenetriaminepentaacetic acid, 51 mM octyl-β-glucopyranoside (Calbiochem), 50 mM NaCl, 51 mM imidazole, 1 mM EDTA, 12.5 mM MgCl2, 2 mM dithiothreitol, 0.7% glycerol, 70 μM β-mercaptoethanol, 1 mM ATP, 10 μCi of [γ-^32P]ATP, 35 μg/ml Escherichia coli diacylglycerol kinase (Calbiochem) at pH 6.5. After 30 minutes at room temperature, the reaction was stopped by extraction of lipids with 1 ml of chloroform:methanol:1 N HCl (100:100:1), 170 μl of buffered saline solution (BSS) (135 mM NaCl, 1.5 mM CaCl2, 0.5 mM MgCl2, 5.6 mM glucose, and 10 mM HEPES (pH 72), and 30 μl of 100 mM EDTA. The lower organic phase was dried under N2. Ceramide-1 phosphate was resolved by thin-layer chromatography on silica gel 60 plates (Whatman) using a solvent system of chloroform:methanol:acetic acid (65:15:5, v/v/v) and detected by autoradiography, and incorporated ^32P was quantified by liquid scintillation counting. The level of ceramide was determined by comparison with a standard curve generated concomitantly of known amounts of ceramide.
To test the effect of chemotherapy on ASMase signaling and ceramide production, BAEC were treated with paclitaxel (100 nM) and ASMase activity was determined by radioenzymatic assay (Rotolo et al, infra) using [^14C-methylcholine] sphingomyelin (Amersham) as substrate (FIG. 1A). […] Ceramide generation was monitored using the diacylglycerol kinase assay (Stancevic et al. PLoS ONE 8, e69025, 2013). […]
as §1

CRM = CRM detection by confocal microscopy in BAEC; type: cell-based, bovine; settings: nystatin 30 μg/mL 30 min pre-treatment, paclitaxel 100 nM
Procedure: BAEC were grown on CC2-treated chamber slides (Nalge Nunc International Corp., Naperville, USA) and then exposed to etoposide or paclitaxel with or without pre-incubation with Nystatin (30 μg/ml, Sigma) for 30 min. BAEC were then washed in cold PBS, fixed for 15 min in fresh 2% paraformaldehyde, washed 2× with cold PBS, and blocked with 5% FBS in PBS for 20 min at room temperature. Cells were stained with anti-ceramide MID 15B4 IgM (Alexis Corporation) at 1:50 dilution for 1 hour at room temperature, washed 3× in PBS, and thereafter with Texas Red-conjugated secondary antibody (Jackson Immunoresearch Laboratories, Inc.) at 1:500 dilution for 1 hour at room temperature. Nonspecific fluorescence was excluded using isotype control IgM (BD Biosciences). Cells were washed 3×, stained with DAPI and mounted in 0.1% paraphenylenediamine. Fluorescence was detected using Leica TCS SP2 AOBS 1- and 2-photon laser scanning confocal (DMRXA2 upright stand) microscope coupled with MetaMorph 7.5 (Molecular Devices). Number of CRMs in membranes of endothelial cells was analyzed using MetaMorph 7.5 software that allowed outlining of regions containing CRMs based on two criteria: 1) CRM size (≥500 nm); 2) Intensity of ceramide staining. Mice: asmase^+/+ and asmase^−/− mice, maintained in a SCID background, were propagated using heterozygous breeding pairs and genotyped as previously described (Santana et al. Cell, 86, 189-199, 1996; Grassme et al. Nat Med 9, 322-330 (2003). 6-12 week-old C57BL6/SV129 male mice, purchased from The Jackson Laboratory (Bar Harbor).
To test the effect of chemotherapy on ASMase signaling and ceramide production, BAEC were treated with paclitaxel (100 nM) and ASMase activity was determined by radioenzymatic assay (Rotolo et al, infra) using [^14C-methylcholine] sphingomyelin (Amersham) as substrate (FIG. 1A). Induction of ASMase activity was observed within 5 minutes after treatment, and the activation continued for 30 minutes. Ceramide generation was monitored using the diacylglycerol kinase assay (Stancevic et al. PLoS ONE 8, e69025, 2013). […]

## Cc1[nH]c(/C=C2\C(=O)Nc3ccccc32)c(C)c1CCC(=O)O [SU6668]
[1]
  Average half-life: 3.6 h

## bFGF: basic fibroblast growth factor, pro-angiogenic factor
BAEC
  Effect on etoposide-induced apoptosis: substantially inhibits etoposide-induced apoptosis

## COc1cc2c(Oc3ccc4[nH]c(C)cc4c3F)ncnc2cc1OCCCN1CCCC1 [cediranib]
[1]
  Average half-life: 22 to 27 h

## CNC(=O)c1cc(Oc2ccc(NC(=O)Nc3ccc(Cl)c(C(F)(F)F)c3)cc2)ccn1 [sorafenib]
[1]
  Average half-life: 25 to 48 h

## COc1cc2nccc(Oc3ccc(NC(=O)C4(C(=O)Nc5ccc(F)cc5)CC4)cc3)c2cc1OC [cabozantinib]
[1]
  Average half-life: 55 h

## Cc1ccc(Nc2nccc(N(C)c3ccc4c(C)n(C)nc4c3)n2)cc1S(N)(=O)=O [pazopanib]
[1]
  Average half-life: about 30 hours

## anginex
[1]
  Half-life: ~0.833 h

## Cc1ccc(C(=O)Nc2ccc(CN3CCN(C)CC3)c(C(F)(F)F)c2)cc1C#Cc1cnc2cccnn12 [ponatinib]
[1]
  Average half-life: 24 h

## Clc1ccc(Nc2nnc(Cc3ccncc3)c3ccccc23)cc1 [vatalanib]
[1]
  Average half-life: 4.7 h

## VEGF
BAEC
  Effect on etoposide-induced apoptosis: substantially inhibits etoposide-induced apoptosis

## COc1cc([C@@H]2c3cc4c(cc3[C@@H](O[C@@H]3O[C@@H]5CO[C@@H](C)O[C@H]5[C@H](O)[C@H]3O)[C@H]3COC(=O)[C@H]23)OCO4)cc(OC)c1O [etoposide]
BAEC; bovine endothelial cells, cisplatin up to 50 μM, etoposide 50 μM alone
  Apoptotic response: significantly induces apoptosis
Ceramide [2]
  Ceramide generation: leads to the generation of ceramide
ASMase
  ASMase activation remained for: 30 min
ASMase; cisplatin 0.1-50 μM, gemcitabine 100 nM time-course
  ASMase activation: activation of ASMase
Ceramide [3]
  Ceramide formation remained for: 30 min
Ceramide [3]; paclitaxel 100 nM, cisplatin 0.1-50 μM
  Ceramide generation: ceramide formation within a few minutes

## C[C@@H]1[C@H](O)[C@@H](C)/C=C/C=C/CC/C=C/C=C/C=C/C=C/C(O[C@H]2O[C@H](C)[C@@H](O)[C@H](N)[C@@H]2O)CC2O[C@](O)(CC(O)C(O)CCC(O)CC(O)CC(O)CC(=O)O[C@H]1C)CC(O)C2C(=O)O (some centres unmarked) [nystatin]
BAEC
  Effect on etoposide-induced apoptosis: substantially inhibits etoposide-induced apoptosis
CRM
  Effect on paclitaxel-induced CRM formation: prevented the formation of CRMs

## CCN(CC)CCNC(=O)c1c(C)[nH]c(/C=C2\C(=O)Nc3ccc(F)cc32)c1C [sunitinib]
[1]
  Average half-life: 40 to 60 h

## CNC(=O)c1ccccc1Sc1ccc2c(/C=C/c3ccccn3)n[nH]c2c1 [axitinib]
[1]
  Average half-life: 2.5 to 6 h
